Consider 1 compound from publication PMC11249626, “Fluorophore-Labeled Pyrrolones Targeting the Intracellular Allosteric Binding Site of the Chemokine Receptor CCR1” (ACS Pharmacology & Translational Science, 2024).

The structures appear in SMILES notation.

In assay [1] the target is vasopressin-2 receptor (V2R). Set-up: method as in PMID 17435162. The note with it: cited from earlier work.
For another assay, the target named is T1, CXCR2 (Homo sapiens, UniProt P25025).
T1 construct: host or cells: HEK293T, transient
T1 sequence (P25025 1-360): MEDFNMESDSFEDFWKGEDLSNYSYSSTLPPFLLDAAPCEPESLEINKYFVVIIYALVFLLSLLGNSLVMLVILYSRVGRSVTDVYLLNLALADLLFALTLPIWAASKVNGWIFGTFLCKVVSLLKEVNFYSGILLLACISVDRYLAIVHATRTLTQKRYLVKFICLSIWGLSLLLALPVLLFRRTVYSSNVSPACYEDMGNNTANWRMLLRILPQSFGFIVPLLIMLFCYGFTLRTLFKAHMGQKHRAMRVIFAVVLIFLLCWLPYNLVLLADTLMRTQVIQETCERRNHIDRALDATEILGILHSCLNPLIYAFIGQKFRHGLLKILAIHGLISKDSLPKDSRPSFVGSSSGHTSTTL
Kind of assay: NanoBRET-based assay for binding to the IABS of CXCR2, as previously reported. The note with it: up to a concentration of 20 μM. From the text:
With 6 (Figure 1), a first lead structure for intracellular CCR1 inhibition that features an approximately 20-fold CCR1 over CCR2 selectivity was previously discovered by Ortiz Zacarías et al.([33]) In order to discover new chemotypes for selective CCR1 over CCR2 inhibition, we aimed to apply our novel NanoBRET competition binding assay for CCR1 in combination with our recently published CCR2 competition binding assay based on 7.[47] In our first attempt, we screened a small in-house library enriched with intracellular GPCR ligands and structural analogues thereof. […] Additionally, we tested 23 for binding to the IABS of CCR9 and CXCR2 using our recently reported NanoBRET-based assay platform (Figure 6C).[44],[45] In the course of these studies, we detected no binding of 23 to CCR9 and CXCR2 up to a concentration of 20 μM. Since cell lineage-dependent effects have been observed for CCR1 antagonists,[59] we studied the CCR1 over CCR2 selectivity of 23 by using a previously reported radioligand binding assay with membrane preparations from osteosarcoma (U2OS) cells stably expressing human CCR1 or CCR2.[33] […] In agreement with these previous reports,[33] we observed a reduction in CCR1 over CCR2 selectivity when moving from membrane-based binding assays to cell-based functional assays. […]
(BRET reads energy transfer from a luciferase to a nearby fluorophore.)

With `O=C(C1=C(O)C(=O)N(CCc2ccc(O)cc2)C1c1ccc(F)cc1)c1ccccc1` (racemic) [compound 23], the Ki in assay [1] was roughly 70 nM. Besides, the “Binding to the IABS of CXCR2” value at CXCR2 is given as “no binding”.

Usually Ki stands for a dissociation constant, usually derived from enzyme kinetics or from competition with a known ligand.
